The subject of assay [1] is HCV 1b-BB7 subgenomic replicon. In words: microbe, parasite or virus in culture. In kind it is cell-based, HCV genotype 1b. Particulars: Hepatitis C virus, stable replicon.
Assay [2] relates to HCV NS5B polymerase 1a-H77-C316Y. Description: biochemical. Further details: species or system HCV genotype 1a. Particulars: ratio of enzyme IC50s, 1a H77-C316Y / 1a H77. Put shortly: (§1)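 Recombinant NS5B (residues 1–570, His-tagged, E. coli-expressed) copied 5 nM of a 2.1 kb HCV 1b negative-strand 3′-end RNA template with 20 μM CTP, 20 μM ATP and 0.284 μM [3H]UTP for 3 h at 30 °C. Spermine-precipitated RNA was filter-captured and counted, and IC50 was fitted by nonlinear regression.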

The target in assay [3] is T1, HCV NS5B polymerase 1a-H77-C316Y (Hepatitis C virus genotype 1a, UniProt P27958, C2736Y).
T1 construct: six-histidine tag; made in house; host or cells: E. coli
In words: biochemical. More on the design: species or system HCV genotype 1a. Summed up:
as §1

The target of assay [4] is T2, HCV NS5B polymerase 1a-H77 (Hepatitis C virus genotype 1a, UniProt P27958).
T2 construct: six-histidine tag; made in house; host or cells: E. coli
In words: biochemical. Further details: species or system HCV genotype 1a. The conditions noted are these: enzyme, strain 1a H77; read-out: HCV Polymerase Strain 1a H77 IC50. Summed up: as §1

Assay [5] has as its system HCV 1a-H77 subgenomic replicon. In words: microbe, parasite or virus in culture. In kind it is cell-based, HCV genotype 1a. Particulars: Hepatitis C virus, stable replicon.
Assay [6] relates to chimeric replicon with genotype 3a NS5B. In words: microbe, parasite or virus in culture. The format is cell-based, HCV genotype 3a. The conditions noted are these: Hepatitis C virus, read-out: 3a chimera 5% FBS EC50.
Assay [7] deals with chimeric replicon with genotype 4a NS5B. Description: microbe, parasite or virus in culture. In kind it is cell-based, HCV genotype 4a. The conditions noted are these: Hepatitis C virus, read-out: 4a chimera 5% FBS EC50.
Assay [8] concerns chimeric replicon with genotype 2b NS5B. Description: microbe, parasite or virus in culture. In kind it is cell-based, HCV genotype 2b. The conditions noted are these: Hepatitis C virus, read-out: 2b chimera 5% FBS EC50.
The subject of assay [9] is chimeric replicon with 2a-J6CF-derived NS5B. Description: microbe, parasite or virus in culture. The format is cell-based, HCV genotype 2a. Particulars: Hepatitis C virus, read-out: 2a chimera 5% FBS EC50.
In assay [10] the target is T3, HCV NS5B polymerase 1b BK strain (Hepatitis C virus genotype 1b, UniProt P26663).
T3 construct: six-histidine tag; made in house; host or cells: E. coli
In words: HCV NS5B polymerase enzymatic inhibition assay, strain 1b BK. In kind it is biochemical. Particulars: enzyme, strain 1b BK; read-out: HCV Polymerase Strain 1b BK IC50. Summed up:
as §1

The mark [11] stands for this setting: strain 1b BB7, 5% FBS + 40% human plasma, read-out: 1b BB7 5% FBS + 40% Human Plasma EC50.
Where [12] appears, read: strain 1b BB7, 5% FBS, no human plasma, read-out: 1b BB7 5% FBS EC50.
[13] abbreviates: strain 1b BB7, 5% FBS, read-out: 1b BB7 5% FBS EC50.
The mark [14] stands for this setting: 5% FBS, absence of human plasma, read-out: Stable Replicon 1a H77 5% FBS EC50.
Where [15] appears, read: strain 1a H77, 5% FBS + 40% human plasma, read-out: 1a H77 5% FBS + 40% Human Plasma EC50.
Where [16] appears, read: strain 1a H77, 5% FBS, no human plasma, read-out: 1a H77 5% FBS EC50.
Setting [17] is: strain 1a H77, 5% FBS, read-out: 1a H77 5% FBS EC50.

Each structure is given as a SMILES string. pEC50, pIC50: −log10 of the molar value. Where two headings read alike, the source gives them in different places.

T1 sequence (P27958 2421-2990 C2736Y): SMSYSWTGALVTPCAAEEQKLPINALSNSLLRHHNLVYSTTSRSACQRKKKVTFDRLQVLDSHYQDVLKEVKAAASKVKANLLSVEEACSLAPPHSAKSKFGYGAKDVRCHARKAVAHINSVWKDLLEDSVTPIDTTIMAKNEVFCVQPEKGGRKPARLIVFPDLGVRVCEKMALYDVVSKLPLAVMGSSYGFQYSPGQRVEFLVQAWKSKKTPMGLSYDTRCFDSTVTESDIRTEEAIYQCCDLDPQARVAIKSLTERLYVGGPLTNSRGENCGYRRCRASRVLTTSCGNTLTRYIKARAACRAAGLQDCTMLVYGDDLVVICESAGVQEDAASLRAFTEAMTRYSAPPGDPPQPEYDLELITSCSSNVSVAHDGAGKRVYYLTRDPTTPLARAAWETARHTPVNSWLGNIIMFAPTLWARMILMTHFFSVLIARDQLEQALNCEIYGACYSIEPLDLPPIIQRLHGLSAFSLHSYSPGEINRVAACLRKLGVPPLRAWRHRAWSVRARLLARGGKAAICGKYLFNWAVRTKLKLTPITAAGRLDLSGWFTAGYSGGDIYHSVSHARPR
T2 sequence (P27958 2421-2990): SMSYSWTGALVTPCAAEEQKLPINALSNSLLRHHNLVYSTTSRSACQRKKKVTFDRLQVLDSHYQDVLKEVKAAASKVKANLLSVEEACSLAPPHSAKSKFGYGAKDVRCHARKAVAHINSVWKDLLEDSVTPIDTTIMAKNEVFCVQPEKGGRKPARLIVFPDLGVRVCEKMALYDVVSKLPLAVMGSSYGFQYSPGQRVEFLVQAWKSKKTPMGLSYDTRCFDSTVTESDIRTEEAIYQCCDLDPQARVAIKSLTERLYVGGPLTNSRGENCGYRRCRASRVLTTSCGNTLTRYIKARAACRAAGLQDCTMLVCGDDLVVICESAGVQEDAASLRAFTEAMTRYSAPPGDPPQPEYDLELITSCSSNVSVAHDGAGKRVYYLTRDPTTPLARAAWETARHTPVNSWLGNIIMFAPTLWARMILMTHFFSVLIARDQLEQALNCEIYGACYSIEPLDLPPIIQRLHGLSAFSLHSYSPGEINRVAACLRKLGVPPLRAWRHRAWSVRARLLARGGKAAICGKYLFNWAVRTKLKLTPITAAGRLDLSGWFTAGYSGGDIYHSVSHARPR
T3 sequence (P26663 2420-2989): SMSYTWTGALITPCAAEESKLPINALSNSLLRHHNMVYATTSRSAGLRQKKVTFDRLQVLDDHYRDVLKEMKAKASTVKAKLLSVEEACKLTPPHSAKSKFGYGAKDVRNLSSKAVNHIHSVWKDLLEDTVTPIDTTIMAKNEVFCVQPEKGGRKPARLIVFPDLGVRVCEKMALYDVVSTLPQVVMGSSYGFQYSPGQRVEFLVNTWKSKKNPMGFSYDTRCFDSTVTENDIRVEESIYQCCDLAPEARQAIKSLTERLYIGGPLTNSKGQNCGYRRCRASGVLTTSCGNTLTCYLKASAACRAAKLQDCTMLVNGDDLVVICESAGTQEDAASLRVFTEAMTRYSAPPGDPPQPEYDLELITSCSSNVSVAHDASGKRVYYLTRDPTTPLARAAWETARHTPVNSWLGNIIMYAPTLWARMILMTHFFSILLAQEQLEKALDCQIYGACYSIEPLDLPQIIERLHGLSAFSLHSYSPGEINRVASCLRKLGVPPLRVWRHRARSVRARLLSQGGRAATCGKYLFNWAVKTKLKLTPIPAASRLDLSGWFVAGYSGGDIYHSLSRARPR

For the molecule `CS(=O)(=O)N(CCCCC(F)=C(F)F)c1cc2oc(-c3ccc(F)cc3)c(C3=NOCCN3)c2cc1C1CC1` [Example 120, N-[5-cyclopropyl-3-(5,6-dihydro-4H-1,2,4-oxadiazin-3-yl)-2-(4-fluorophenyl)-1-benzofuran-6-yl]-N-(5,6,6-trifluorohex-5-en-1-yl)methanesulfonamide], the pEC50 was 6.72 in assay [1] (setting [11]); 7.74 in [1] (setting [12]); 7.74 in [1] (setting [13]); 7.76 in assay [5] (setting [14]); 6.72 in assay [5] (setting [15]); 7.76 in assay [5] (setting [16]). The pEC50 in [5] (setting [17]) is 7.76; in [6] it was 7.44; in [7], 7.09; in assay [8], 6.80; in [9], 6.90. Further, in assay [2], the “C316Y/1a Fold Resistance” value was 6 fold. Moreover, the pIC50 in assay [3] is 7.55; in [4] it was 8.30; in assay [10], 7.33.
As to `CS(=O)(=O)N(CCC/C(N)=N/O)c1cc2oc(-c3ccc(F)cc3)c(C3=NOCCN3)c2cc1C1CC1` [Example 181, (1Z)-4-{[5-cyclopropyl-3-(5,6-dihydro-4H-1,2,4-oxadiazin-3-yl)-2-(4-fluorophenyl)-1-benzofuran-6-yl](methylsulfonyl)amino}-N′-hydroxybutanimidamide], the pEC50 in [1] (setting [11]) is 6.15; in [1] (setting [12]), 7.34; in assay [1] (setting [13]), 7.34; in assay [5] (setting [14]), 7.25; in assay [5] (setting [15]), 6.21; in assay [5] (setting [16]) it was 7.25. Besides, the pEC50 in assay [5] (setting [17]) is 7.25; in assay [6], 6.97; in assay [7], 6.23; in assay [8], 6.26; in assay [9], 6.11. The “C316Y/1a Fold Resistance” value in assay [2] was 10 fold. Besides, the pIC50 in assay [3] was 6.99; in assay [4], 8.00; in assay [10], 7.25.
Consider `CCOP(=O)(CCCN(c1cc2oc(-c3ccc(F)cc3)c(C3=NOCCN3)c2cc1C1CC1)S(C)(=O)=O)OCC` [Example 116, diethyl (3-{[5-cyclopropyl-3-(5,6-dihydro-4H-1,2,4-oxadiazin-3-yl)-2-(4-fluorophenyl)-1-benzofuran-6-yl](methylsulfonyl)amino}propyl)phosphonate], for which the pEC50 was 6.67 in assay [1] (setting [11]); 7.49 in assay [1] (setting [12]); 7.49 in [1] (setting [13]); 7.44 in assay [5] (setting [14]); 6.80 in assay [5] (setting [15]); 7.44 in assay [5] (setting [16]). In addition, the pEC50 in assay [5] (setting [17]) was 7.44; in [6], 7.08; in [7], 6.61; in assay [8], 6.40; in assay [9], 6.27. In addition, the “C316Y/1a Fold Resistance” value in assay [2] was found to be 8 fold. Also, the pIC50 in [3] is 7.20; in assay [4], 8.12; in assay [10] it was 7.46.
On to `CC(=O)CCCN(c1cc2oc(-c3ccc(F)cc3)c(-c3ncc[nH]3)c2cc1C1CC1)S(C)(=O)=O` [Example 73, N-[5-cyclopropyl-2-(4-fluorophenyl)-3-(1H-imidazol-2-yl)-1-benzofuran-6-yl]-N-(4-oxopentyl)methanesulfonamide], for which the pEC50 is 7.26 in [1] (setting [11]); 8.31 in [1] (setting [12]); 8.31 in [1] (setting [13]); 8.10 in [5] (setting [14]); 7.14 in assay [5] (setting [15]); 8.10 in assay [5] (setting [16]). The pEC50 in assay [5] (setting [17]) is 8.10; in [6], 8.54; in assay [7], 7.37; in [8], 7.66; in [9] it was 7.57. Also, in [2], the “C316Y/1a Fold Resistance” value worked out at 15 fold. Moreover, the pIC50 is 7.28 in assay [3], 8.46 in [4] and 7.82 in [10].
`CS(=O)(=O)N(CCCc1noc(=O)[nH]1)c1cc2oc(-c3ccc(F)cc3)c(C3=NOCCN3)c2cc1C1CC1` [Example 182, N-[5-cyclopropyl-3-(5,6-dihydro-4H-1,2,4-oxadiazin-3-yl)-2-(4-fluorophenyl)-1-benzofuran-6-yl]-N-[3-(5-oxo-4,5-dihydro-1,2,4-oxadiazol-3-yl)propyl]methanesulfonamide]: the negative-log EC50 (pEC50) is 5.28 in assay [1] (setting [11]); 6.51 in [1] (setting [12]); 6.51 in assay [1] (setting [13]); 6.45 in assay [5] (setting [14]); 5.37 in [5] (setting [15]); 6.45 in assay [5] (setting [16]). The pEC50 in assay [5] (setting [17]) is 6.45; in assay [6], 6.18; in [7] it was below 6.00; in assay [8], 6.00; in [9], 6.00. Besides, the “C316Y/1a Fold Resistance” value in assay [2] worked out at 4 fold. For the same molecule, the results for the pIC50 in assay [3], in assay [4] and in assay [10] were 7.59, 8.15 and 7.36, respectively.
Regarding `COCCCN(c1cc2oc(-c3ccc(F)cc3)c(-c3ncc[nH]3)c2cc1C1CC1)S(C)(=O)=O` [Example 69, N-[5-cyclopropyl-2-(4-fluorophenyl)-3-(1H-imidazol-2-yl)-1-benzofuran-6-yl]-N-(3-methoxypropyl)methanesulfonamide], the pEC50 in assay [1] (setting [11]) is 7.23; in assay [1] (setting [12]), 8.18; in assay [1] (setting [13]), 8.18; in [5] (setting [14]), 7.86; in assay [5] (setting [15]) it was 6.59; in assay [5] (setting [16]), 7.86. The pEC50 in [5] (setting [17]) is 7.86; in [6], 8.03; in assay [7], 7.08; in [8] it was 7.17; in [9], 7.21. The “C316Y/1a Fold Resistance” value in [2] was found to be 32 fold. The pIC50 was 6.69 in assay [3], 8.19 in assay [4] and 7.54 in assay [10].
As to `CS(=O)(=O)N(CCCN1CCCC1)c1cc2oc(-c3ccc(F)cc3)c(C3=NOCCN3)c2cc1C1CC1` [Example 132, N-[5-cyclopropyl-3-(5,6-dihydro-4H-1,2,4-oxadiazin-3-yl)-2-(4-fluorophenyl)-1-benzofuran-6-yl]-N-[3-(pyrrolidin-1-yl)propyl]methanesulfonamide], the pEC50 is 6.91 in [1] (setting [11]); 7.40 in [1] (setting [12]); 7.40 in assay [1] (setting [13]); 6.85 in assay [5] (setting [14]); 6.50 in [5] (setting [15]); 6.85 in assay [5] (setting [16]). Also, the pEC50 in assay [5] (setting [17]) was 6.85; in assay [6] it was 7.03; in assay [7], below 6.00; in [8] it was 6.37; in assay [9], 6.61. In addition, in [2], the “C316Y/1a Fold Resistance” value worked out at 42 fold. In addition, the pIC50 in assay [3] is 6.03; in assay [4], 7.66; in [10] it was 6.61.
`C[S+]([O-])CCCN(c1cc2oc(-c3ccc(F)cc3)c(C3=NOCCN3)c2cc1C1CC1)S(C)(=O)=O` (stereo not drawn) [Example 139, N-[5-cyclopropyl-3-(5,6-dihydro-4H-1,2,4-oxadiazin-3-yl)-2-(4-fluorophenyl)-1-benzofuran-6-yl]-N-[3-(methylsulfinyl)propyl]methanesulfonamide]: the pEC50 was 6.02 in [1] (setting [11]); 7.17 in [1] (setting [12]); 7.17 in assay [1] (setting [13]); 7.23 in assay [5] (setting [14]); 6.19 in [5] (setting [15]); 7.23 in [5] (setting [16]). Besides, the pEC50 in assay [5] (setting [17]) was 7.23; in assay [6], 6.99; in assay [7], 6.24; in assay [8], 6.10; in assay [9], 6.00. Besides, in assay [2], the “C316Y/1a Fold Resistance” value was 11 fold. In addition, the pIC50 in assay [3] is 7.05; in assay [4] it was 8.11; in assay [10], 8.05.

(Values after patent publication US20160355530A1, “HEPATITIS C INHIBITORS AND USES THEREOF” (AbbVie Inc., priority 2010, published 2016).)
